Patent US4739067A, “4-(1,2,5,6-tetrahydro-1-alkyl-3-pyridinyl)-2-thiazolamines and 4-(hexahydro-1-alkyl-3-pyridinyl)-2-thiazolamines” (priority 1986, dated 1988)
Read-outs that look alike come from different tables or passages of the source.

Key:
Haloperidol Receptor = target: T1, Haloperidol Receptor (Bos taurus, UniProt P20288); experiment: Haloperidol Receptor Binding (dopaminergic agents); conditions: read-out: % Inhibition (Haloperidol Receptor Binding)
T1 construct: from tissue
Text: The method for determining the effectiveness of the compounds of the instant invention as dopaminergic agents is explained in Mol. Pharmacol., 1976 (12) 800 herein incorporated by reference.

[1] = test system: Locomotor Activity in Mouse; experiment: Inhibition of Locomotor Activity in Mouse (Mouse Activity and Screen Test Procedure); assay type: in vivo; conditions: read-out: ED50, Inhibition of Locomotor Activity in Mouse
Text: The effects of representative compounds of the present invention as antipsychotic agents was established by the Mouse Activity and Screen Test Procedure described in Pharmacol. Biochem. Behav. 1978 (8) 97, herein incorporated by reference.
Inhibition of Locomotor Activity in Mouse

[2] = test system: Spontaneous Hypertensive Rat; experiment: Antihypertensive action, Spontaneous Hypertensive Rat; assay type: in vivo; conditions: 30 mg/kg, PO
Experimental: The methodology for testing the antihypertensive action of the compounds of the invention is described in Am. J. Med. Sci., 1970 (259)257, herein incorporated by reference. These experiments are considered standard tests in mammals and are indicative of utility for treatment of similar diseases in humans.
Spontaneous Hypertensive Rat (30 mg/kg, PO)

T1 sequence (P20288 whole entry): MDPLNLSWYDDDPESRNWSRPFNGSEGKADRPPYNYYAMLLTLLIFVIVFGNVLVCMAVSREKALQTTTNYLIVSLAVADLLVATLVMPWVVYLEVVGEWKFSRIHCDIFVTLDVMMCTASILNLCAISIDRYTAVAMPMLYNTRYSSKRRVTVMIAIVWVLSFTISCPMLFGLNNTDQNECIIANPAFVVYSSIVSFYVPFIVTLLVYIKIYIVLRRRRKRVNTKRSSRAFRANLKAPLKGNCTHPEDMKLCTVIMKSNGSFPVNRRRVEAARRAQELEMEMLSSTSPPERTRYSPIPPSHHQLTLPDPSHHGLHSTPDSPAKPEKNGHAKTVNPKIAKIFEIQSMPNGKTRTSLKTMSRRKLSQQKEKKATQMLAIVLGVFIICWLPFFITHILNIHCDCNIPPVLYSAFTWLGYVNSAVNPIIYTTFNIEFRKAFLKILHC

Row | inhibition at 1 µM (Haloperidol Receptor; at 10^-6 M) [%] | Compound | ED50 [1] [mg/kg] | further results
1 | 65 | CC(C)CCN1CCC=C(c2csc(N)n2)C1 [4-[1,2,5,6-Tetrahydro-1-(3-methylbutyl)-3-pyridinyl]-2-thiazolamine] | 8.7 | –
2 | 35 | CCOCCN1CCC=C(c2csc(N)n2)C1 [4-[1-(2-Ethoxyethyl)-1,2,5,6-tetrahydro-3-pyridinyl]-2-thiazolamine] | 30 | –
3 | 66 | CCCN1CCC=C(c2csc(N)n2)C1 [III (double bond) R=R'=H; R"=(CH2)2 CH3, 4-(1,2,5,6-Tetrahydro-1-propyl-3-pyridinyl)-2-thiazolamine] | 2.9 | –
4 | – | Nc1nc(C2=CCCN(CCc3ccccc3)C2)cs1 [III (double bond) R=R'=H; R"=(CH2)2 Ph, 4-[1,2,5,6-Tetrahydro-1-(2-phenylethyl)-3-pyridinyl]-2-thiazolamine] | 18.1 | inhibition at 1 µM (Haloperidol Receptor): 16%
5 | 57 | CCCCN1CCC=C(c2csc(N)n2)C1 [III (double bond) R=R'=H; R"=(CH2)3 CH3, 4-(1,2,5,6-Tetrahydro-1-butyl-3-pyridinyl)-2-thiazolamine] | 7.3 | –
6 | 26 | CCCCCN1CCC=C(c2csc(N)n2)C1 [III (double bond) R=R'=H; R"=(CH2)4 CH3, 4-(1,2,5,6-Tetrahydro-1-pentyl-3-pyridinyl)-2-thiazolamine] | < 10 | –
7 | 88 | CCCCCCN1CCC=C(c2csc(N)n2)C1 [III (double bond) R=R'=H; R"=(CH2)5 CH3, 4-(1,2,5,6-Tetrahydro-1-hexyl-3-pyridinyl)-2-thiazolamine] | > 30 | –
8 | – | CCCCCCCN1CCC=C(c2csc(N)n2)C1 [III (double bond) R=R'=H; R"=(CH2)6 CH3, 4-(1,2,5,6-Tetrahydro-1-heptyl-3-pyridinyl)-2-thiazolamine] | 10.4 | –
9 | 49 | CCN1CCC=C(c2csc(N)n2)C1 [III (double bond) R=R'=H; R"=CH2 CH3, 4-(1,2,5,6-Tetrahydro-1-ethyl-3-pyridinyl)-2-thiazolamine] | > 30 | –
10 | 40 | C=CCN1CCC=C(c2csc(N)n2)C1 [III (double bond) R=R'=H; R"=CH2 CH=CH2, 4-(1,2,5,6-Tetrahydro-1-allyl-3-pyridinyl)-2-thiazolamine] | 3 | –
11 | 50 | CN1CCC=C(c2csc(N)n2)C1 [III (double bond) R=R'=H; R"=CH3, 4-(1,2,5,6-Tetrahydro-1-methyl-3-pyridinyl)-2-thiazolamine] | 30 | –
12 | – | CCCN1CCCC(c2csc(N)n2)C1 (stereo not drawn) [III (single bond) R=R'=H; R"=(CH2)2 CH3, 4-(1-Propyl-3-piperidyl)-2-thiazolamine] | 10 | inhibition at 1 µM (Haloperidol Receptor): 15%
13 | – | CCCN1CCC=C(c2csc(NC)n2)C1 [N-Methyl-4-(1,2,5,6-tetrahydro-1-propyl-3-pyridinyl)-2-thiazolamine] | 10 | –
14 | 0 | CCCCCN1CCC=C(c2csc(NC(C)=O)n2)C1 [N-[4-(1,2,5,6-Tetrahydro-1-pentyl-3-pyridinyl)-2-thiazolyl]acetamide] | 10 | –
15 | 0 | CCCN1CCC=C(c2csc(NC(C)=O)n2)C1 [N-[4-(1,2,5,6-Tetrahydro-1-propyl-3-pyridinyl)-2-thiazolyl]-acetamide] | 30 | –
16 | 9 | CCCN1CCCC(c2csc(NC(C)=O)n2)C1 (stereo not drawn) [N-[4-(1-propyl-3-piperidyl)-2-thiazolyl]acetamide] | 30 | –
17 | – | CCCCCN1CCC=C(c2csc(NC)n2)C1 [N-methyl-4-(1,2,5,6-tetrahydro-1-pentyl-3-pyridinyl)-2-thiazolamine] | < 10 | –
18 | – | CCCCCN1CCC=C(c2csc(N(C)C(C)=O)n2)C1 [N-methyl-N-[4-(1,2,5,6-tetrahydro-1-pentyl-3-pyridinyl)-2-thiazolyl[-acetamide] | 6.4 | –
19 | – | CCCN1CCC=C(c2csc(N(C)C(C)=O)n2)C1 [N-methyl-N-[4-(1,2,5,6-tetrahydro-1-propyl-3-pyridinyl)-2-thiazolyl]-acetamide] | 39 | –
20 | – | CCCN1CCC=C(c2csc(N)n2)C1 [drawing 5] | – | Decrease in Blood Pressure ([2]; duration 1 hour): 20%; Decrease in Blood Pressure ([2]; duration up to 6 hours): 10-15%; Duration (of decrease in blood pressure) ([2]; of the 10-15% decrease): up to 6 hours; Duration (of decrease in blood pressure) ([2]; of the 20% decrease): 1 h
21 | – | CC(C)CCN1CCC=C(c2csc(N)n2)C1 [drawing 6] | – | Decrease in Blood Pressure ([2]; duration up to 10 hours): 12-20%; Duration (of decrease in blood pressure) ([2]; of the 12-20% decrease): up to 10 hours
